Results: patent US20030056788A1, “Partial liquid breathing of fluorocarbons” (priority 1991, published 2003)

Assays:
[1] = Surface and interfacial tensions and spreading coefficients of perfluorocarbons on saline; type: physicochemical; set-up: S(o on w) spreading coefficient: unit: mN/m; settings: T = 25 C; for γo/w (interfacial tension oil/water) / S(o on w) spreading coefficient: on saline; for S(o on w) spreading coefficient: S = γw/a − (γw/o + γo/a)
Description: The ability of a given substance to cover a measured surface area can be described by its spreading coefficient. The spreading coefficients for fluorocarbons can be expressed by the following equation:
S(o on w)=γw/a−(γw/o+γo/a)
Where S (o on w) represents the spreading coefficient; γ=interfacial tension; w/a=water/air; w/o=water/oil; and o/a=oil/air.
Fluorocarbons having spreading coefficients of at least one are particularly preferred. If the spreading coefficient is negative, the compound will tend to remain as a lens on the membrane surface. Adequate coverage of the lung surface is important for restoring oxygen and carbon dioxide transfer and for lubricating the lung surfaces to minimize further pulmonary trauma.
Each perfluorocarbon tested is provided together with its molecular weight and the specific variables that are used to calculate the spreading coefficient S (o on w). The perfluorocarbons reported are PFOB, perfluorotributylamine (FC-17), perfluorodecalin (APF-140), dimethyl perfluorodecalin (APF-175), trimethyl decalin (APF-200), perfluoroperhydrophenanthrene (APF-215), pentamethyl decalin (APF-240), and octamethyl decalin (APF-260).

[2] = tested on: rabbits following lung lavage to remove endogenous surfactant; test: Partial liquid ventilation with PFOB in rabbit model of respiratory insufficiency induced by lung lavage; type: in vivo, New Zealand rabbits; settings: rabbits after lung lavage
Description: The following examples provide information relating to the effect of PFOB treatment on respiratory insufficiency in an experimental rabbit model. The general protocol for partial liquid ventilation of the rabbits is described below.
New Zealand rabbits weighing between 2.8 and 3.0 kg were anesthetized with 50 mg/kg of […] sodium iv and a cannula was inserted through a tracheotomy midway along the trachea with its tip proximal to the carina. Ventilation with a Servo ventilator 900C (Siemens-Elema, Sweden) was initiated using pure oxygen and zero end-expiratory pressure with a constant tidal volume of 12 ml/kg, frequency of 30/min and inspiratory time of 35%. Anesthesia was maintained with additional doses of pentobarbital, as required, and pancuronium bromide was administered as an intravenous bolus (0.1 mg/kg) and followed by a continuous infusion (0.1 mg/kg/hr) for muscle paralyzation. A solution of 5% dextrose and 0.45% NaCl was administered continuously at a rate of 10 ml/kg/hr as a maintenance fluid. A heating pad maintained core temperature at 37±1° C., monitored by an esophageal thermistor (Elektroalboratoriet, Copenhagen).
Left femoral artery and vein were each cannulated with polyvinyl catheters for arterial and central venous pressure recording and blood sampling. A special indwelling catheter (Mikro-pO2-Messkatheter, Licox) was inserted into the right femoral artery for continuous oxygen pressure monitoring (Licox, GMS, Germany). Arterial blood gas and Hb (hemoglobin) measurements were made by Osm-2 Hemoximeter and ABL-330 (Radiometer Copenhagen). Lung mechanics and end-tidal CO2 were measured by means of Lung Mechanics Calculator 940 (Siemens-Elema, Sweden) and CO2 Analyzer 930 (Siemens-Elema, Sweden), respectively. Intravascular pressure monitoring was made by using a Statham P23XL transducer (Spectramed, USA) and all tracings including ECG were recorded by a Sirecust 1280 recorder (Siemens).
After the control observations were made, lung lavage with 30 ml/kg of warm saline (37° C.) was performed to induce respiratory insufficiency. After the first lavage, positive end expiratory pressure (PEEP) was increased to 6 cmH2O and lung lavages were repeated to get an arterial pO2 below 100 mmHg with the initial ventilatory settings (between 4-6 lavages). […]
After respiratory insufficiency was induced, PFOB liquid was administered through the tracheal cannula into the animal's lungs with incremental doses of 3 ml/kg up to a total volume of 15 ml/kg. Animals were ventilated for 15 minutes after each dose of PFOB instillation with the same ventillatory settings as mentioned above and thereafter arterial blood gases, cardiocirculatory parameters and pulmonary mechanics were measured. […]

[3] = Vapor pressure of fluorocarbons

Molecule | γo/a (interfacial tension oil/air) [1] | γo/w (interfacial tension oil/water) [1] | S(o on w) spreading coefficient [1] | other results
FC(F)(F)C(F)(F)C(F)(F)C(F)(F)C(F)(F)C(F)(F)C(F)(F)C(F)(F)Br [PFOB, 1-bromo-heptadecafluoro-octane] | 18.0 mN/m | 51.3 mN/m | – | arterial oxygen pressure as percent of original (pre-lavage) value ([2]; 15 ml/kg PFOB intratracheal, n = 6): 83%; mean arterial carbon dioxide tension (in words) ([2]; after PFOB administration, post-lavage level 48.7 mmHg): decreased; mean airway pressure (in words) ([2]; increasing volumes of PFOB): decreased mean airway pressure; arterial oxygen tension (in words) ([2]; increasing volumes of PFOB 3-15 ml/kg intratracheal, compared to saline treated controls): significantly improved the arterial oxygen tension; vapor pressure ([3]; 37° C.): 14 torr
pentamethyl decalin [APF-240] | 22.6 mN/m | 56.3 mN/m | −6.9 | –
octamethyl decalin [APF-260] | 22.4 mN/m | 56.1 mN/m | −6.5 | –
FC1(F)C(F)(F)C(F)(F)C2(F)C(F)(C1(F)F)C(F)(F)C(F)(F)C1(F)C(F)(F)C(F)(F)C(F)(F)C(F)(F)C12F (stereo not drawn) [APF-215, perfluoroperhydrophenanthrene] | 21.6 mN/m | 56.0 mN/m | −5.6 | –
FC1(F)C(F)(F)C(F)(F)C2(F)C(F)(F)C(F)(F)C(F)(F)C(F)(F)C2(F)C1(F)F (stereo not drawn) [APF-140, perfluorodecalin] | 18.2 mN/m | 55.3 mN/m | – | –
dimethyl perfluorodecalin [APF-175] | 20.7 mN/m | 55.9 mN/m | −4.6 | –
FC(F)(F)C(F)(F)C(F)(F)C(F)(F)N(C(F)(F)C(F)(F)C(F)(F)C(F)(F)F)C(F)(F)C(F)(F)C(F)(F)C(F)(F)F [FC-47, perfluorotributylamine] | 17.9 mN/m | 55.1 mN/m | – | –
trimethyl decalin [APF-200] | 21.4 mN/m | 55.9 mN/m | −5.3 | –
FC(F)(F)C(F)(F)C(F)(F)C(F)(F)C(F)(F)C(F)(F)Br [1-bromotridecafluorohexane] | – | – | – | vapor pressure (in words) [3]: relatively high vapor pressures
